Results published in patent publication US11364275B2, “Linear lipopeptide paenipeptins and methods of using the same” (priority 2017, dated 2022).
Values after ≈ are worked out from the molar mass of the structure shown. Read-outs that look alike come from different tables or passages of the source. Where a SMILES comes first, the peptide text is derived from it. [ ]: non-standard residue; d: D form. The star is where a group is joined. Dab = NCC[C@H](N)C(=O)O; Cbz = O=C(OCc1ccccc1)*

Experiments:
[1] = system: A. baumannii FDA-CDC AR 0037; conditions: A. baumannii AR 0037
[2] = system: A. baumannii FDA-CDC AR 0063; assay: Time-kill kinetics in 95% human serum, alone and combined; assay type: cell-based, Acinetobacter baumannii; conditions: A. baumannii AR 0063, 24 h
Method: Bacterial viable counts were determined at 0, 2, 4, 6, and 24 h after antimicrobial treatment. Bacterial surviving counts at 24 h endpoints were subjected to analysis of variance (ANOVA) followed by Tukey's honest significant difference (HSD) tests using SPSS Statistics (version 24; SPSS, Inc., Chicago, Ill., USA).
To further test the therapeutic potential of paenipeptin analogues, the time-kill kinetics assays of paenipeptins alone or in combination with other antibiotics were performed in 95% human serum in vitro. Without antimicrobial treatment, the population of A. baumannii FDA-CDC AR 0063 increased from 5.8 log to 9.3 log within 24 h. […] (FIG. 7A).

[3] = system: A. baumannii FDA-CDC AR 0052; conditions: A. baumannii AR 0052
[4] = system: methicillin-resistant S. aureus ATCC 43300; assay type: cell-based, Staphylococcus aureus; conditions: S. aureus ATCC 43300; TSB
Method: The minimum inhibitory concentration (MIC) of paenipeptin analogues was determined using the broth microdilution method (Wirker, M. A. Methods for Dilution Antimicrobial Susceptibility Tests for Bacteria that Grow Aerobically: Approved Standard M07-A8; Clinical and Laboratory Standards Institute, Wayne, Pa., 2009). Seven reference strains (Acinetobacter baumannii ATCC 19606, Escherichia coli ATCC 25922, Klebsiella pneumoniae ATCC 13883, Pseudomonas aeruginosa ATCC 27853, Enterococcus faecium ATCC 19434, Staphylococcus aureus ATCC 29213 and methicillin-resistant S. aureus ATCC 43300) were subjected to MIC testing.
Paenipeptin analogues were two-fold diluted in tryptic soy broth (TSB; Becton Dickinson) and mixed with an equal volume of bacterial suspensions in TSB containing approximately 1.5×10^5 colony-forming units (CFU)/mL in a clear UV-sterilized 96-well microtiter plate (NBS, Corning Inc., Corning, N.Y.). […] The microtiter plate was incubated at 37° C. for 18-20 h.

[5] = system: A. baumannii FDA-CDC AR 0070; conditions: A. baumannii AR 0070

For `CC[C@H](C)[C@H](NC(=O)[C@H](CCN)NC(=O)OCc1ccccc1)C(=O)N[C@@H](CCN)C(=O)N[C@H](Cc1ccccc1)C(=O)N[C@@H](CC(C)C)C(=O)N[C@@H](CCN)C(=O)N[C@@H](C(=O)N[C@@H](CC(C)C)C(=O)N[C@@H](CO)C(N)=O)C(C)C` [Analogue 15] (Cbz-[Dab]I[Dab][dF]L[Dab][dV]LS-NH2), which “MIC of rifampicin at the presence of PMBN or paenipeptin analogue at 4 μg/ml” value [1] is on record?
Its value is at most 0.0019 μg/ml.

And the MIC alone ([1]; 10% FBS)?
Its MIC alone is 4 µg/mL (≈ 3.56 µM).

What about the MIC alone ([1]; No FBS) of the same molecule?
Its MIC alone is 8 µg/mL (≈ 7.11 µM).

And the “increase in antibiotic activity of clarithromycin” value ([1]; analogue at 4 μg/mL)?
The value was 8192 fold.

And the “decrease of bacterial population, analogue 4 μg/ml in combination with rifampicin 4 μg/ml” value [2]?
Its value is 2.7 log.

And the “log reduction, analogue 4 μg/ml in combination with clarithromycin 4 μg/ml” value [2]?
The value was 0.7 log.

What about the MIC alone ([3]; 10% FBS) of the same molecule?
The MIC alone was under 0.5 µg/mL.

And the MIC alone ([3]; No FBS)?
Its MIC alone is at most 0.5 µg/mL.

And the MIC [4]?
Its MIC is over 32 µg/mL.

What about the MIC alone ([5]; 10% FBS) of the same molecule?
The MIC alone was 0.5 to 1 µg/mL.

What about the MIC alone ([5]; No FBS) of the same molecule?
Its MIC alone is at most 0.5 µg/mL.
